In brackets after ≈: the same amount, converted by molar mass. Like-named read-outs stand apart in the source and are kept apart here.
Tested on: MAI
Assay: antibiotic sensitivity (MIC) of MAI strains, paraffin slide culture and microliter assays
Type: cell-based, Mycobacterium avium-intracellulare
Parameters: key: NG: No Growth
Description: The present invention has met the above-described need. In one embodiment, it provides a method of automatically testing the sensitivity of a paraffinophilic microorganism to different antimicrobial agents, such as antibiotics, and concentrations thereof, by providing a plurality of receptacles, each containing an amount of liquid medium, an antimicrobial agent to be tested and the microorganism to be tested. In each of the receptacles is placed a slide containing a paraffin source. The receptacles are then incubated, after which a light scatter sensing means automatically and sequentially monitors the extent of microorganism growth on the slides. The extent of colony growth is employed to determine which antimicrobial agent in which concentration is effective to resist growth of the microorganism. A preferred light scatter sensing means is a nephelometer.
Referring specifically to FIG. 1, there is shown a preferred embodiment of the present invention usable in a method of automatically testing the sensitivity of a pure culture of a microorganism to different antimicrobial agents and concentrations thereof. In this embodiment, a microorganism, which may have been previously speciated as by the technique taught in U.S. Pat. No. 5,153, 119, has been introduced into a plurality of receptacles, each containing an amount of liquid medium and antimicrobial agent to be tested. A paraffin slide is introduced into each of the receptacles which are subsequently incubated. The receptacles 2-22 (even numbers only) are fixedly secured to an elongated, substantially rigid movable carrier member 26, such that the receptacles 2-22 will be translated therewith in the direction shown by the arrow A. The carrier member 26 may be made of any suitable material, such as aluminum, steel, stainless steel, or resinous plastic, for example. The receptacles 2-22, respectively, contain slides 32-52 (even numbers only). The slides 32-52 are fixedly secured, respectively, within receptacles 2-22 which may test tubes. The slides 32-52 are generally oriented so as to have their elongated direction aligned with the direction of travel of the carrier 26. As the carrier moves in the direction of arrow A, the slides 2-22 will sequentially be positioned in operative relationship to the light scatter sensing means which consists of light source 60, which directs a light beam toward light detector 62. In the preferred embodiment, a beam of visible light from light source 60 will impinge upon slide 32, with the growth of the microorganism thereon producing a corresponding scatter of light which is received by the light receiving sensor 62 and converts the received light into an appropriate output electrical signal which will be delivered to computer means 64. The computer means 64, in turn, provides output to output means 66, which may conveniently be a display, such as a cathode ray tube or a hard copy printer, for example. The degree of light scatter will be related to the extent of microorganism growth with light scatter increasing as growth on the slide increases.
The computer means 64 may be a general purpose digital microprocessor. It may be programmed in a manner readily known to those skilled in the art to sequentially compare the light scatter value of each slide 32-52 with that of a control slide and to provide an output to output means 66, such as a visual screen display or hard copy, with or without prior enhancement, which indicates the difference between the control slide and the specific slides containing the same pure culture of a paraffinophilic microorganism, but exposed to different concentrations of different or the same antimicrobial agents, such an antibiotics. In this manner, there is provided the minimal concentration level of a specific antimicrobial agent that must be used to control growth of the microorganism. Also, the minimum bactericidal concentration may be determined. […]

[1] = Table 2, Exp. Series I, strain 7

SMILES: NCC[C@H](O)C(=O)N[C@@H]1C[C@H](N)[C@@H](O[C@H]2O[C@H](CN)[C@@H](O)[C@H](O)[C@H]2O)[C@H](O)[C@H]1O[C@H]1O[C@H](CO)[C@@H](O)[C@H](N)[C@H]1O [amikacin]
- MIC (Mycobacterium avium-intracellulare, Table 2, Exp. Series I, strain 1, read-out: MIC): > 16 µg/mL
- MIC (Mycobacterium avium-intracellulare, Table 2, Exp. Series I, strain 2, read-out: MIC): > 16 µg/mL
- MIC (Mycobacterium avium-intracellulare, Table 2, Exp. Series I, strain 3, read-out: MIC): 6.4 µg/mL (≈ 10.9 µM)
- MIC (Mycobacterium avium-intracellulare, Table 2, Exp. Series I, strain 4, read-out: MIC): 3.2 µg/mL (≈ 5.46 µM)
- MIC (Mycobacterium avium-intracellulare, Table 2, Exp. Series I, strain 5, read-out: MIC): 6.4 µg/mL (≈ 10.9 µM)
- MIC (Mycobacterium avium-intracellulare, Table 2, Exp. Series I, strain 6, read-out: MIC): 12 µg/mL (≈ 20.5 µM)
- MIC (Mycobacterium avium-intracellulare, Table 2, Exp. Series I, strain 8, read-out: MIC): > 16 µg/mL
- MIC (Mycobacterium avium-intracellulare, Table 2, Exp. Series I, strain 9, read-out: MIC): 12 µg/mL (≈ 20.5 µM)
- MIC (Mycobacterium avium-intracellulare, Table 2, Exp. Series I, strain 10, read-out: MIC): 6.4 µg/mL (≈ 10.9 µM)
- MIC (Mycobacterium avium-intracellulare, Table 2, Exp. Series I, strain 11, read-out: MIC): 7.3 µg/mL (≈ 12.5 µM)
- MIC (Mycobacterium avium-intracellulare, Table 2, Exp. Series I, strain 12, read-out: MIC): 3.2 µg/mL (≈ 5.46 µM)
- MIC (Mycobacterium avium-intracellulare, Table 2, Exp. Series I, strain 13, read-out: MIC): 3.2 µg/mL (≈ 5.46 µM)
- MIC (Mycobacterium avium-intracellulare, Table 2, Exp. Series I, strain 14, read-out: MIC): 9.6 µg/mL (≈ 16.4 µM)
- MIC (Mycobacterium avium-intracellulare, Table 2, Exp. Series I, strain 15, read-out: MIC): 6.4 µg/mL (≈ 10.9 µM)
- MIC (Mycobacterium avium-intracellulare, Table 2, Exp. Series I, strain 16, read-out: MIC): 6.4 µg/mL (≈ 10.9 µM)
- MIC (Mycobacterium avium-intracellulare, Table 2, Exp. Series II, strain 1, read-out: MIC): > 16 µg/mL
- MIC (Mycobacterium avium-intracellulare, Table 2, Exp. Series II, strain 2, read-out: MIC): 12 µg/mL (≈ 20.5 µM)
- MIC (Mycobacterium avium-intracellulare, Table 2, Exp. Series II, strain 3, read-out: MIC): 6.4 µg/mL (≈ 10.9 µM)
- MIC (Mycobacterium avium-intracellulare, Table 2, Exp. Series II, strain 4, read-out: MIC): 6.4 µg/mL (≈ 10.9 µM)
- MIC (Mycobacterium avium-intracellulare, Table 2, Exp. Series II, strain 5, read-out: MIC): 3.2 µg/mL (≈ 5.46 µM)
- MIC (Mycobacterium avium-intracellulare, Table 2, Exp. Series II, strain 6, read-out: MIC): 3.2 µg/mL (≈ 5.46 µM)
- MIC (Mycobacterium avium-intracellulare, Table 2, Exp. Series II, strain 7, read-out: MIC): 6.4 µg/mL (≈ 10.9 µM)
- MIC (Mycobacterium avium-intracellulare, Table 2, Exp. Series II, strain 8, read-out: MIC): > 16 µg/mL
- MIC (Mycobacterium avium-intracellulare, Table 2, Exp. Series II, strain 9, read-out: MIC): 3.2 µg/mL (≈ 5.46 µM)
- MIC (Mycobacterium avium-intracellulare, Table 2, Exp. Series II, strain 10, read-out: MIC): 6.4 µg/mL (≈ 10.9 µM)
- MIC (Mycobacterium avium-intracellulare, Table 2, Exp. Series II, strain 11, read-out: MIC): 9.6 µg/mL (≈ 16.4 µM)
- MIC (Mycobacterium avium-intracellulare, Table 2, Exp. Series II, strain 12, read-out: MIC): 6.4 µg/mL (≈ 10.9 µM)
- MIC (Mycobacterium avium-intracellulare, Table 2, Exp. Series II, strain 13, read-out: MIC): 9.6 µg/mL (≈ 16.4 µM)
- MIC (Mycobacterium avium-intracellulare, Table 2, Exp. Series II, strain 14, read-out: MIC): > 16 µg/mL
- MIC (Mycobacterium avium-intracellulare, Table 2, Exp. Series II, strain 15, read-out: MIC): 6.4 µg/mL (≈ 10.9 µM)
- MIC (Mycobacterium avium-intracellulare, Table 2, Exp. Series II, strain 16, read-out: MIC): 9.6 µg/mL (≈ 16.4 µM)
- MIC (Mycobacterium avium-intracellulare, Table 2, Exp. Series III, strain 1, read-out: MIC): 3.2 µg/mL (≈ 5.46 µM)
- MIC (Mycobacterium avium-intracellulare, Table 2, Exp. Series III, strain 2, read-out: MIC): 3.2 µg/mL (≈ 5.46 µM)
- MIC (Mycobacterium avium-intracellulare, Table 2, Exp. Series III, strain 3, read-out: MIC): 6.4 µg/mL (≈ 10.9 µM)
- MIC (Mycobacterium avium-intracellulare, Table 2, Exp. Series III, strain 4, read-out: MIC): 3.2 µg/mL (≈ 5.46 µM)
- MIC (Mycobacterium avium-intracellulare, Table 2, Exp. Series III, strain 5, read-out: MIC): 3.2 µg/mL (≈ 5.46 µM)
- MIC (Mycobacterium avium-intracellulare, Table 2, Exp. Series III, strain 6, read-out: MIC): 3.2 µg/mL (≈ 5.46 µM)
- MIC (Mycobacterium avium-intracellulare, Table 2, Exp. Series III, strain 7, read-out: MIC): 6.4 µg/mL (≈ 10.9 µM)
- MIC (Mycobacterium avium-intracellulare, Table 2, Exp. Series III, strain 8, read-out: MIC): 3.2 µg/mL (≈ 5.46 µM)
- MIC (Mycobacterium avium-intracellulare, Table 2, Exp. Series III, strain 9, read-out: MIC): 3.2 µg/mL (≈ 5.46 µM)
- MIC (Mycobacterium avium-intracellulare, Table 2, Exp. Series III, strain 10, read-out: MIC): 3.2 µg/mL (≈ 5.46 µM)
- MIC (Mycobacterium avium-intracellulare, Table 2, Exp. Series III, strain 11, read-out: MIC): 6.4 µg/mL (≈ 10.9 µM)
- MIC (Mycobacterium avium-intracellulare, Table 2, Exp. Series III, strain 12, read-out: MIC): 6.4 µg/mL (≈ 10.9 µM)
- MIC (Mycobacterium avium-intracellulare, Table 2, Exp. Series III, strain 13, read-out: MIC): 6.4 µg/mL (≈ 10.9 µM)
- MIC (Mycobacterium avium-intracellulare, Table 2, Exp. Series III, strain 14, read-out: MIC): 6.4 µg/mL (≈ 10.9 µM)
- MIC (Mycobacterium avium-intracellulare, Table 2, Exp. Series III, strain 15, read-out: MIC): 3.2 µg/mL (≈ 5.46 µM)
- MIC (Mycobacterium avium-intracellulare, Table 2, Exp. Series III, strain 16, read-out: MIC): 3.2 µg/mL (≈ 5.46 µM)
- Days to Confluency (Table 2, Exp. Series I, strain 1): 7 days
- Days to Confluency (Table 2, Exp. Series I, strain 2): 7 days
- Days to Confluency (Table 2, Exp. Series I, strain 3): 8 days
- Days to Confluency (Table 2, Exp. Series I, strain 4): 8 days
- Days to Confluency (Table 2, Exp. Series I, strain 5): 7 days
- Days to Confluency (Table 2, Exp. Series I, strain 6): 7 days
- Days to Confluency [1]: NG
- MIC [1]: NG
- Days to Confluency (Table 2, Exp. Series I, strain 8): 7 days
- Days to Confluency (Table 2, Exp. Series I, strain 9): 8 days
- Days to Confluency (Table 2, Exp. Series I, strain 10): 6 days
- Days to Confluency (Table 2, Exp. Series I, strain 11): 5 days
- Days to Confluency (Table 2, Exp. Series I, strain 12): 5 days
- Days to Confluency (Table 2, Exp. Series I, strain 13): 6 days
- Days to Confluency (Table 2, Exp. Series I, strain 14): 5 days
- Days to Confluency (Table 2, Exp. Series I, strain 15): 5 days
- Days to Confluency (Table 2, Exp. Series I, strain 16): 5 days
- Days to Confluency (Table 2, Exp. Series II, strain 1): 7 days
- Days to Confluency (Table 2, Exp. Series II, strain 2): 7 days
- Days to Confluency (Table 2, Exp. Series II, strain 3): 9 days
- Days to Confluency (Table 2, Exp. Series II, strain 4): 5 days
- Days to Confluency (Table 2, Exp. Series II, strain 5): 5 days
- Days to Confluency (Table 2, Exp. Series II, strain 6): 5 days
- Days to Confluency (Table 2, Exp. Series II, strain 7): 5 days
- Days to Confluency (Table 2, Exp. Series II, strain 8): 7 days
- Days to Confluency (Table 2, Exp. Series II, strain 9): 6 days
- Days to Confluency (Table 2, Exp. Series II, strain 10): 6 days
- Days to Confluency (Table 2, Exp. Series II, strain 11): 6 days
- Days to Confluency (Table 2, Exp. Series II, strain 12): 6 days
- Days to Confluency (Table 2, Exp. Series II, strain 13): 6 days
- Days to Confluency (Table 2, Exp. Series II, strain 14): 6 days
- Days to Confluency (Table 2, Exp. Series II, strain 15): 6 days
- Days to Confluency (Table 2, Exp. Series II, strain 16): 6 days
- Days to Confluency (Table 2, Exp. Series III, strain 1): 5 days
- Days to Confluency (Table 2, Exp. Series III, strain 2): 5 days
- Days to Confluency (Table 2, Exp. Series III, strain 3): 12 days
- Days to Confluency (Table 2, Exp. Series III, strain 4): 6 days
- Days to Confluency (Table 2, Exp. Series III, strain 5): 5 days
- Days to Confluency (Table 2, Exp. Series III, strain 6): 5 days
- Days to Confluency (Table 2, Exp. Series III, strain 7): 5 days
- Days to Confluency (Table 2, Exp. Series III, strain 8): 5 days
- Days to Confluency (Table 2, Exp. Series III, strain 9): 7 days
- Days to Confluency (Table 2, Exp. Series III, strain 10): 5 days
- Days to Confluency (Table 2, Exp. Series III, strain 11): 5 days
- Days to Confluency (Table 2, Exp. Series III, strain 12): 5 days
- Days to Confluency (Table 2, Exp. Series III, strain 13): 6 days
- Days to Confluency (Table 2, Exp. Series III, strain 14): 5 days
- Days to Confluency (Table 2, Exp. Series III, strain 15): 5 days
- Days to Confluency (Table 2, Exp. Series III, strain 16): 5 days
